Source: patent publication US20200261391A1, “METHODS OF REDUCING THE RISK OF A CARDIOVASCULAR EVENT IN A STATIN-TREATED SUBJECT BY INCREASING SERUM AND PLASMA EPA AND DPA LEVELS” (Amarin Pharmaceuticals Ireland Limited, priority 2019, published 2020)

Columns and labels:
Type in all cases: in vivo, human
[1] = test system: patients with elevated triglyceride levels on statin therapy; test: REDUCE-IT endpoints by EPA blood level tertile in the icosapent ethyl group compared to placebo; details: averaged upper EPA tertile vs below the upper tertile
Experimental: To assess the relationship between on-treatment hsCRP and the primary and key secondary endpoints, subgroup analyses were carried out as done for the ITT population for patients grouped according to values greater or equal to or less than […] at baseline and at 2 years. To assess the relationship between on-treatment serum EPA and the primary and key secondary endpoints, Kaplan-Meier (KM) curves were produced for AMR101 treated patients grouped into tertiles based on their values at year 1 and were compared with the placebo-treated patients.
This is a study aimed towards determining a relative risk reduction (RRR) between subjects stratified by EPA tertiles in the REDUCE-IT clinical trial described above in Example 1. Samples were obtained from those subjects and total EPA and AA levels in human serum and plasma samples were determined according at least to the methods described in Example 7.
(§1) The objective of this study is to assess the effects of administering icosapent ethyl at 4 g per day to patients from the REDUCE-IT trial of Example 1. More specifically, patients from the REDUCE-IT trial of Example 1 were stratified by their EPA levels into one of three tertiles. Following stratification, the objective was to determine if the RRR differs between patients having EPA levels in the three different tertiles. For the data collected as shown in Tables 38-43 and FIGS. 52, 53, and 56-59, the tertiles were established based on data collected from subjects at 1 year, 2 years, and last visit following icosapent ethyl administration compared to placebo. Data are presented as an average of 1 year, 2 year, […], and end of study values. The data was further analyzed use both pooled and unpooled statistically methods.

[2] = test system: patients with elevated triglyceride levels on statin therapy; test: REDUCE-IT endpoints by pooled (icosapent ethyl and placebo) EPA blood level tertile
Description: as §1
(0.84 for lowest vs. placebo, 0.72 for middle vs. placebo, and 0.65 for highest vs. placebo).

[3] = test system: patients with elevated triglyceride levels on statin therapy; test: REDUCE-IT endpoints by pooled (icosapent ethyl and placebo) EPA/AA ratio tertile
Description: as §1
Placebo and icosapent ethyl treated subjects were pooled and stratified based on EPA/AA tertiles with […], […], and the highest […]

[4] = test system: patients with elevated triglyceride levels on statin therapy; test: REDUCE-IT endpoints by pooled (icosapent ethyl and placebo) EPA blood level tertile; details: FIG. 54; ITT pooled; tertiles ≤31.733, >31.733 to ≤120.175, >120.175 μg/mL
[5] = pooled, tertiles ≤31.305, >31.305 to ≤118.1, >118.1 μg/mL
[6] = FIG. 56, ITT pooled, tertiles ≤0.0857, >0.0857 to ≤0.4053, >0.4053
[7] = pooled, tertiles ≤0.084337, >0.084337 to ≤0.395187, >0.395187

## CC/C=C\C/C=C\C/C=C\C/C=C\C/C=C\CCCC(=O)O [EPA, eicosapentaenoic acid]
[1]
  primary endpoint HR, average achieved EPA >181 mg/L vs ≤181 mg/L: 0.842
[2]; FIG. 52, pooled
  primary composite endpoint RRR, highest vs lowest EPA tertile: 43%
  primary composite endpoint RRR, highest vs middle EPA tertile: 30%
  primary composite endpoint RRR, middle vs lowest EPA tertile: 29%
[2]; FIG. 54, ITT pooled, tertiles ≤31.733, >31.733 to ≤120.175, >120.175 μg/mL
  primary composite endpoint HR, middle vs lowest EPA tertile: 0.79
[2]; pooled placebo and icosapent ethyl, tertiles ≤31.305, >31.305 to ≤118.1, >118.1 μg/mL
  primary endpoint HR, highest vs. lowest tertile: 0.65
[2]; [5]
  key secondary endpoint HR, highest vs. lowest tertile: 0.61
  key secondary endpoint HR, highest vs. middle tertile: 0.78
  key secondary endpoint HR, middle vs. lowest tertile: 0.78
  primary endpoint HR, highest vs. middle tertile: 0.80
  primary endpoint HR, middle vs. lowest tertile: 0.81
[3]; [6]
  primary endpoint HR, highest vs. lowest EPA/AA tertile: 0.63
  primary endpoint HR, middle vs. lowest EPA/AA tertile: 0.79
[3]; [7]
  key secondary endpoint HR, highest vs. lowest EPA/AA tertile: 0.57
  key secondary endpoint HR, highest vs. middle EPA/AA tertile: 0.75
  key secondary endpoint HR, middle vs. lowest EPA/AA tertile: 0.76
  primary endpoint HR, highest vs. lowest EPA/AA tertile: 0.64
  primary endpoint HR, highest vs. middle EPA/AA tertile: 0.84
  primary endpoint HR, middle vs. lowest EPA/AA tertile: 0.77
[4]
  primary composite endpoint HR, high vs lowest EPA tertile: 0.64
